These are literature values, as cited in patent publication US8343544B2, “Oral sustained-release tablet” (Kyorin Pharmaceutical Co., Ltd., priority 2003, dated 2013).

The conditions of the data set: conventional preparation.

For `Cc1nccn1CCC(C(N)=O)(c1ccccc1)c1ccccc1` [KRP-197, 4-(2-methyl-1-imidazolyl)-2,2-diphenylbutylamide], the “absorption after an oral administration” value is “rapidly absorbed”. Also, the half-life entry (oral) is given as “relatively short”.
